This is an account of results in US20020037903A1, “Use of pyrimidine endothelin antagonists in companion animals” (priority 2000, published 2002).

One data set has as its system heart disease in dogs. The conditions noted are these: veterinary clinical trial, dogs with heart disease; cited from earlier work.
In data set [1] the test system is dog renal artery strips (ET-1-induced contraction). Description: Test A: inhibition of contraction induced by ET-1 in dog renal artery strips to generate Kb values. The class given is cell-based, beagle dogs. The conditions noted are these: Canis lupus familiaris, 1.25 h, ET-1 contraction, 75 minutes incubation with test compound, single concentration, read-out: Apparent Kb. An excerpt: Inhibition of Contraction Induced by ET-1 in Dog Renal Artery Strips to Generate Kb Values
A Kb value is a measure of functional activity, and this is taken to be the free plasma concentration of a test compound required to provide efficacy.
Renal arteries from beagle dogs (body weight 9-15 kg) were cut into spirals and divided into 5 mm long strips. The side of each strip that was adjacent to the lumen of the vessel was gently rubbed to remove the endothelium. […] The tension generated by each strip was recorded isometrically. After incubating the tissues with test compound for 75 minutes, cumulative concentration response curves were constructed to ET-1 in the presence of 10 μM Bestatin, 10 μM Captopril, 10 μM Thiorphan, 50 μM indomethacin and 0.001% BSA. Only a single ET-1 curve was constructed in each tissue and tension increases expressed as a percentage of the response to 120mM KCl determined before the addition of the test compound. […] This is the ratio of the EC50 in the presence of the test compound divided by the EC50 in its absence. The DR is then put into the following equation:
apparent pKb=log(DR−1)−log[B] (where B=molar concentration of test compound)

Data set [2] can be described thus: Test B: pharmacokinetic study in the dog, plasma concentrations after i.v. infusion. Conditions: for Estimated % of Kb at 24 hours following 2.0 mg/kg i.v. dose: 0.5 mg/kg value multiplied by 4; for % of Kb at 24 hours following 0.5 mg/kg i.v. dose: free plasma concentration as percentage of Kb from Test A; for concentration at 24 h: plasma, intravenous, 0.5 mg/kg. The data set is classed as in vivo. As to the method: In order to assess the potential of test ET antagonists to provide efficacy, a pharmacokinetic study in the dog was carried out.
Blood samples were taken at various time points and centrifuged to provide plasma samples. These samples were analysed using Mass Spectrometry to provide total plasma concentrations.
Total plasma concentrations in the dog were determined by comparison with the standard line constructed (using the spiked plasma samples) to cover the expected concentration range.
(c) Calculation of free plasma concentrations [formula] or % protein bound=(1−Fu)×100
The free plasma concentrations of the compound can then be determined.
Free plasma concentration=total plasma concentration (from method (a))×fraction unbound (from method (b))

A short description of data set [3]: Test B(b): plasma protein binding by equilibrium dialysis. The class given is in vitro ADME. Conditions: dog, canine plasma. An excerpt:
(b) Determination of plasma protein binding by equilibrium dialysis
An example of a method used is described below.
Plasma containing the test compound was placed in a chamber (half-cell), separated by a semi-permeable membrane (Spectra/Por™ 1 47 mm diam MWCO 6-8000) from isotonic buffer at physiological pH in the other half-cell. The system was allowed to equilibrate, such that low molecular weight compounds distributed evenly between the two chambers (plasma and buffer), whilst high molecular weight molecules were restricted to the plasma chamber. At equilibrium the concentration of the unbound test compound is the same on either side of the membrane. The concentration of total test compound in each half-cell was then determined (using essentially the described above) and the extent of plasma protein binding calculated.
The Spectra/Por™ Equilibrium Dialyzer used to determine protein binding was supplied by NBS Biologicals.
On the technique in general: Equilibrium dialysis compares concentrations on both sides of a semipermeable membrane.

The target in another data set is T1, ETB receptors (Homo sapiens, UniProt P24530).
T1 construct: host or cells: man (in vivo)
T1 sequence (P24530 27-442): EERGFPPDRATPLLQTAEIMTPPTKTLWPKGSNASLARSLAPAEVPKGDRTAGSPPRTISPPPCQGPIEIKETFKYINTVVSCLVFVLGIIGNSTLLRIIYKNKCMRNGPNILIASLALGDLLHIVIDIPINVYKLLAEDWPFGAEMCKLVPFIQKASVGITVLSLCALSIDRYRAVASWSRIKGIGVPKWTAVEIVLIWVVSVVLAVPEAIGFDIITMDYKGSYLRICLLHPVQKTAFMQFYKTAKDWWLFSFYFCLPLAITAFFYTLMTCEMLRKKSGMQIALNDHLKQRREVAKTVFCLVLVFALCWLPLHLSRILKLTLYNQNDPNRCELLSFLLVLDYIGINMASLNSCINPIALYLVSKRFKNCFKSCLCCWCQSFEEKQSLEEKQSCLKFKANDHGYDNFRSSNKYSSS
The conditions noted are these: in man; cited from earlier work.

The next data set relates to ETA/B receptor. The conditions noted are these: hypertensive patients; cited from earlier work.
Data set [4] relates to ET-1-induced pressor response. Kind of data set: Test C: inhibition of ET-1-induced pressor response in conscious beagle dogs. The data set is classed as in vivo. As to the method:
Inhibition of ET-1-induced Pressor Response in Conscious Beagle Dogs
Studies were performed in surgically prepared conscious beagle dogs (13-17 kg) which were well adjusted to the laboratory environment. Surgical preparation was performed under recovery anaesthesia to insert an indwelling aortic catheter with external access between the scapulae and protruding subcutaneous ECG studs, positioned for the recording of lead 11 electrocardiograms. During studies dogs were placed, unrestrained, in “Pavlov” type slings. The aortic catheter was connected to a pressure transducer for the measurement of systemic arterial pressure and ECG studs, via patient cables, to a bio-amplifier for the recording of electrocardiograms. ET-1 was administered as a 15 min infusion (25 pmoles/kg/min) via a temporary catheter inserted into the saphenous vein. Test compound or placebo was administered by oral gavage (0.5 or 2.0 mg/kg) at 1 and 24 hours prior to the infusion of ET-1. Individual studies investigated no more than a single dose of test compound or placebo at any one time. Systemic arterial pressure and electrocardiograms were recorded for one hour prior to and one hour after the start of the infusion of ET-1. Test compounds were evaluated by comparing the effects of placebo or test compound on the magnitude of pressor response elicited by ET-1.

Data set [5] relates to dogs with pacing-induced CHF. Kind of data set: Congestive heart failure induced by rapid ventricular pacing in dogs. The class given is in vivo. On the procedure: A group of animals receiving ACE-inhibitor treatment served as positive control.
Heart failure was induced by rapid ventricular pacing, which is a well established and extensively documented model It is the only heart failure model that allows control of the degree of heart failure by adjusting the pacing rate.
Dogs were paced throughout the study at pacing rates up to 220-240 bpm leading to steadily progressing CHF.
Group 1: Placebo (Furosemide 4 mg/kg/day BID per os, n=6)
Group 2: ET-receptor antagonist (2 mg/kg/day SID per os+Furosemide as above, n=6)
Group 3: Enalapril maleate (1 mg/kg/day BID per os+Furosemide as above)
(n=6, positive control) was initiated 2 weeks after start of pacing and continued for 3 weeks.
Throughout the study, both clinical parameters (heart murmurs, edema formation, dyspnoe) as well as haemodynamic (CO, blood pressure, cardiac contractility, and heart rate) and humoral parameters (plasma catecholamines, ANF, ET-1) were measured to determine morbidity and quality of life of the animals.
Dosing of the animals during the 3-week treatment period took place BID@8 am and 4 pm:
Improvement in cardiac function is illustrated by the effect of Compound X on the left ventricular enddiastolic pressure (LVEDP) in resting dogs before and during progressive CHF induced by pacing at […]. Test compounds were given for 3 weeks while pacing continued. In the graph below, the Y-axis is LVEDP in mm, and the X-axis is the time in weeks. […] [In the study, 5 dogs were treated with placebo, 3 dogs were treated with enalapril, and 5 dogs were treated with Compound X] [drawing 5]
Dogs were paced for 2 weeks to develop CHF and then assigned to oral gavage treatment with either placebo (vehicle), Compound X (2 mg/kg/day, sid), or enalapril (1 mg/kg/day, bid). In addition, all animals received the diuretic furosemide (4 mg/kg/day, bid) throughout treatment period. During the 3-week treatment period, rapid ventricular pacing was continued. Pacing led to deterioration of myocardial and circulatory function with progression of CHF as indicated by increases in left ventricular enddiastolic pressure (LVEDP) and reductions of cardiac contractility and output. In addition, all animals were assessed for clinical parameters of CHF by an independent veterinarian.
Throughout the study dogs were studied twice weekly at rest and during standardised exercise on a treadmill at two different speeds.

The next data set relates to neointimal formation. The conditions noted are these: after balloon angioplasty; cited from earlier work.
Setting [6] is: 0.5 mg/kg i.v. infusion over 10 minutes, read-out: Total plasma concentration at 24 hours following 0.5 mg/kg iv dose.
Setting [7] is: total plasma concentration x fraction unbound, read-out: Free concentration at 24 hours following 0.5 mg/kg i.v. dose.
Setting [8] is: 2 mg/kg/day sid p.o. plus furosemide, 3 weeks.

Where two headings read alike, the source gives them in different places.

As for `CCOC(=O)[C@H](CCc1ccccc1)N[C@@H](C)C(=O)N1CCC[C@H]1C(=O)O` [enalapril], in the data set with heart disease in dogs, the Cardiac function result is “did not improve cardiac function” and the Disease progression result was “significant slow down in disease progression”.
Turning to `COc1cc(OC)nc(O[C@H](C(=O)O)C(OC)(c2ccccc2)c2ccccc2)n1` [LU 135,252], the Kb in data set [1] was 111 nM. In data set [2], the “Estimated % of Kb at 24 hours following 2.0 mg/kg i.v. dose” value (“Estimated % of Kb” below) is listed as 4.8% and the “% of Kb at 24 hours following 0.5 mg/kg i.v. dose” value turned out to be 1.2%. Besides, in [2] (setting [6]), the concentration at 24 h came out at 40 nM. Also, the concentration at 24 h in data set [2] (setting [7]) turned out to be 1.3 nM. In data set [3], this compound showed an unbound share (fraction unbound) of 0.032.
As for `CCCC[C@@H](NC(=O)[C@@H](Cc1cn(C(=O)OC)c2ccccc12)NC(=O)[C@H](CC(C)(C)C)NC(=O)N1[C@H](C)CCC[C@@H]1C)C(=O)O` [BQ-788], the “Effect on peripheral resistance” value on ETB receptors is on record as “increase peripheral resistance”.
Turning to `COCCOc1nc(-c2ncccn2)nc(NS(=O)(=O)CCc2ccccc2)c1Oc1ccccc1OC` [Example 2, WO 98/57938], the Kb in data set [1] turned out to be 136 nM. Moreover, in [2], the “Estimated % of Kb” value is recorded as <32%. In data set [2], the “% of Kb at 24 hours following 0.5 mg/kg i.v. dose” value is on record as <8%. Moreover, the concentration at 24 h was < 93 nM in data set [2] (setting [6]) and < 11 nM in data set [2] (setting [7]). The fraction unbound in data set [3] is 0.12.
For the compound `COc1ccccc1Oc1c(NS(=O)(=O)c2ccc(C(C)(C)C)cc2)nc(-c2ncccn2)nc1OCCO` [Bosentan], in the data set with ETA/B receptor, the “Effect on blood pressure” value was “decreased blood pressure”.
As to `COc1ccccc1Oc1c(NS(=O)(=O)CCc2ccccc2)nc(-c2ncccn2)nc1OC` [Compound X, N-[6-methoxy-5-(2-methoxyphenoxy)-2-(2-pyrimidinyl)-4-pyrimidinyl]-2-phenylethansulphonamide], in data set [1], the Kb is 86 nM. Also, in [2], the “Estimated % of Kb” value was 196% and the “% of Kb at 24 hours following 0.5 mg/kg i.v. dose” value stood at 49%. Further, the concentration at 24 h in data set [2] (setting [6]) was 466 nM. Moreover, the concentration at 24 h in data set [2] (setting [7]) worked out at 41.9 nM. Moreover, the fraction unbound in data set [3] was determined as 0.09. The “Change in arterial pressure elicited by ET-1” value in [4] (0.5 mg/kg p.o., 1 hour prior to ET-1 infusion) is listed as 3 ΔmmHg. In addition, in data set [4] (2.0 mg/kg p.o., 24 hours prior to ET-1 infusion), the “Change in arterial pressure elicited by ET-1” value was 3 ΔmmHg. This compound also had an inhibition at 0.5 mg/kg in data set [4] (Canis lupus familiaris, po, 0.5 mg/kg p.o., 1 hour prior to ET-1 infusion) of 76%. Moreover, in [4] (Canis lupus familiaris, po, 2.0 mg/kg p.o., 24 hours prior to ET-1 infusion), testing at 2 mg/kg gave an inhibition of 80%. For the same compound, in data set [5] (setting [8]), the “Arterial blood pressure (BP)” value was “lower arterial blood pressure”; the Cardiac output result is listed as “maintained or even increased cardiac output”; the “LVEDP at rest and during treadmill exercise” value is “significantly improved LVEDP not only under resting conditions but even more so during treadmill exercise”; the “LVEDP relative to pre-treatment values” is recorded as “lowered LVEDP below pre-treatment values”. Further, the “Left ventricular enddiastolic pressure (LVEDP) in resting dogs” value in [5] (2 mg/kg/day sid p.o. plus furosemide, 3 weeks, pacing 210-240 bpm, versus placebo and enalapril) was “Significant improvements over both placebo and enalapril”. The Exercise tolerance result in data set [5] (all treated animals, placebo group three out of six developed exercise intolerance) is recorded as “maintained exercise tolerance throughout the study”. For the same compound, the “Heart failure class, NYHA scale (I-IV)” value in data set [5] (all treated animals, placebo group three out of six reached class III) was “class II”.
`CCCOc1ccc2c(c1)[C@@H](c1ccc(OC)cc1OCC(=O)O)[C@H](C(=O)O)[C@H]2c1ccc2c(c1)OCO2` [SB-209670]: the “Reduction in neointimal formation relative to control animals” value with neointimal formation is given as 50%.

For orientation: fraction unbound means free concentration divided by total concentration. The term inhibition denotes the share of the control response that was lost under treatment.
